The target in one assay is T1, Bradykinin B1 Receptor (Homo sapiens, UniProt P46663).
T1 construct: purchased; host or cells: transiently transfected CHO-K1 cells (membranes)
T1 sequence (P46663 1-353): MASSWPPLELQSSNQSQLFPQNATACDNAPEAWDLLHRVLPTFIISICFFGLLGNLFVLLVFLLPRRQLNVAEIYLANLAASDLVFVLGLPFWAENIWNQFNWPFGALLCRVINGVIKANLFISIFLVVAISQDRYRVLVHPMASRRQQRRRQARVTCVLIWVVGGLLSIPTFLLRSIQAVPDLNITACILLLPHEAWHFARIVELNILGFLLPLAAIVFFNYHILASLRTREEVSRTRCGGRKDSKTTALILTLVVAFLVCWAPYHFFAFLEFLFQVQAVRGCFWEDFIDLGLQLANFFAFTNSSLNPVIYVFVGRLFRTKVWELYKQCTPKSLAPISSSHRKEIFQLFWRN
Nature of the assay: Radioligand binding assay for bradykinin B1 receptor. As for the experimental part:
(§1) Example 10: Radioligand Binding Assay for Bradykinin B1 and B2 Receptor
(§2) Bradykinin receptor membrane (B1 & B2) was procured from commercial source. Competitive radioligand binding assay was done by filtration-based technique using membranes prepared from transiently transfected Chinese hamster ovary (CHO)—K1 cells. Briefly, different concentrations of Phenazopyridine (compound I-A) was added to 96 wells plate containing bradykinin membrane along with required controls. The assay plate was harvested onto a GF/B Unifier harvester plate and washed with cold wash buffer. Plate was dried in oven for 15 mins at 60° C. The membrane activity was analyzed based on the readout using MicroBeta from Perkin Elmer in Counts Per Minute (CPM). Percent inhibition of Bradykinin receptor activity was calculated at each concentration and summarized in the results.

A further assay addresses T2, Bradykinin B2 Receptor (Homo sapiens, UniProt P30411).
T2 construct: purchased; host or cells: transiently transfected CHO-K1 cells (membranes)
T2 sequence (P30411 1-391): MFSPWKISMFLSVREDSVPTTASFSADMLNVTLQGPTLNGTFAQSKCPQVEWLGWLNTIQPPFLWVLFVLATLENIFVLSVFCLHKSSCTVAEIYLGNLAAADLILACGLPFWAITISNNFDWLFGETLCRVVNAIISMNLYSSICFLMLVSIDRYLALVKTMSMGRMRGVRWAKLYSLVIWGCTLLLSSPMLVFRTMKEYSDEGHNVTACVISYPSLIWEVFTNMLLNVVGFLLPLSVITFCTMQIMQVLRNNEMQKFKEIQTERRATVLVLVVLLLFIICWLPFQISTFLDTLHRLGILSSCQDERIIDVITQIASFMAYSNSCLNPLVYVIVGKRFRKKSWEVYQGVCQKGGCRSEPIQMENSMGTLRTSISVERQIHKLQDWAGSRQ
Nature of the assay: Radioligand binding assay for bradykinin B2 receptor. The method, then:
as §1, §2

In general, inhibition refers to the share of the control response that was lost under treatment. For `Nc1ccc(/N=N/c2ccccc2)c(N)n1` [Phenazopyridine], the inhibition at 1 µM stood at 12% on Bradykinin B1 Receptor (1.00 μM) and 37% on Bradykinin B2 Receptor (1.00 μM). Moreover, the inhibition at 10.01 µM stood at 49% at Bradykinin B1 Receptor (10.01 μM) and 59% on Bradykinin B2 Receptor (10.01 μM). Moreover, the inhibition at 100 µM at Bradykinin B1 Receptor (100.00 μM) came out at 81%; at Bradykinin B2 Receptor (100.00 μM) it was 98%. At Bradykinin B2 Receptor (0.03 μM), this compound gave an inhibition at 0.03 µM of 6%. In addition, the inhibition at 0.1 µM on Bradykinin B2 Receptor (0.10 μM) was determined as 13%. Also, testing at 0.32 µM at Bradykinin B2 Receptor (0.32 μM) gave an inhibition of 10%. On Bradykinin B2 Receptor (3.17 μM), this compound came in with an inhibition at 3.17 µM of 38%. Moreover, on Bradykinin B2 Receptor (31.65 μM), testing at 31.65 µM gave an inhibition of 78%.
